Laboratory results from patent US20200384072A1, “THERAPY OF IONIZING RADIATION-INDUCED DISORDERS” (SCK-CEN, priority 2019, published 2020).

How the values were obtained:
TICAE cells [1] = experiment: Intracellular ROS, CM-H2DCFDA IncuCyte live cell imaging, TICAE cells; type: cell-based, human; conditions: 100 μM TAT-Gap19, 0.1 and 5 Gy, 45 min p.i.
Experimental: In order to further assess intracellular ROS production, IncuCyte live cell imaging was used to have fast imaging in large number of replicates over multiple time points. TICAE and TIME cells were seeded in 96-well plate in 16 replicates at a density of 10000 cells/well. Three days later, cells reached 100% confluence. At 30 minutes before irradiation, a fresh MesoEndo Cell Growth Medium without phenol red (Sigma-Aldrich Co. LCC, Diegem, Belgium) supplemented with 10 μmol/L of the CM-H2DCFDA dye (Sigma-Aldrich Co. LCC, Diegem, Belgium) was added to the cells, with or without 100 μM TAT-Gap19 (Genosphere Biotechnologies, Paris, France). Fluorescence signals were measured at 45 min, 2 h and 3 h after irradiation (CM-H2DCFDA dye became saturated due to photoactivaton, and leaked outside the cells after this time) using the IncuCyte ZOOM® system (Essen BioScience, Ann Arbor, Mich., USA), 10× objective and FITC filter. […] Images were analysed making use of the software package provided by the manufacturer; we used a training set of images from different doses to define the image processing procedure. The so called Top-Hat background subtraction method was applied by measuring the radius of the fluorescence object (30 μm), and adjust a threshold of 1.5 (above the local background fluorescent intensity level), as described in IncuCyte™ Background Fluorescence Technical Note. […]

TIME cells = experiment: Cell death, Annexin V and Caspase 3/7 live cell imaging, TIME cells; type: cell-based, human
Experimental: TICAE and TIME cells were seeded in 96 well plates at a density of 10000 cells/well in 8 biological replicates. After three days, cells were at 100% confluence. At 30 minutes before X-ray exposure, cells were refreshed with 200 μl medium supplemented with Caspase 3/7 reagent (1:1000 dilution) and Annexin V reagent (1:200 dilution) (Essen Bioscience, United Kingdom) with or without 100 μM TAT-Gap19 (Genosphere Biotechnologies, Paris, France). Fluorescence signals were measured from 4 h until 100 h after irradiation by imaging every 2 hours using the IncuCyte ZOOM® system (Essen BioScience, Ann Arbor, Mich., USA). Different channels (TRITC, FITC and phase contrast) and a 10× objective were used. Spectral unmixing set as 8% of red removed from green was applied. The IncuCyte software's processing definition was set to recognize red (Annexin V) and green (Caspase 3/7) stained cells, making use of the Top-Hat background subtraction method. Fluorescence signal was normalized to cell count.

TICAE cells [2] = experiment: Cytokine detection (Magnetic Luminex) in supernatant after irradiation, TICAE cells; type: cell-based, human
Experimental: TICAE and TIME cells were seeded in a 6-well plate at a density of 2.5×10^5 cells/well in 5 to 6 biological replicates. Two to three days later, cells reached 100% confluence. At 30 minutes before X-ray exposure, cells were refreshed with medium with or without 100 μM TAT-Gap19 (Genosphere Biotechnologies, Paris, France). At 24 h, 48 h, 72 h and 7 d after irradiation, the supernatant was collected. Medium was changed only for the 7 d time point experiment at the fourth day with fresh medium alone or with medium supplemented with 100 μM TAT-Gap19. For the simultaneous detection of multiple cytokines in the supernatants, the Magnetic Luminex® Assay (R&D systems, Minneapolis, […]) was used following manufacturer's instructions. Briefly, supernatants, standards and microparticles were incubated into a 96-well plate which was pre-coated with cytokine-specific antibodies. The immobilized antibodies were able to bind the cytokines of interest after 2 h incubation, then the plate was washed and incubation with a biotinylated antibody cocktail specific to the cytokines of interest was performed for 1 h. A second wash was performed to remove the unbound biotinylated antibodies. Further, a streptavidin-phycoerythrin conjugate was added to each well to bind to the biotinylated antibodies. After a final wash, the microparticles were resuspended in buffer and read using the Luminex® MAGPIX Analyzer (R&D systems, Minneapolis, […]).
In order to normalize to cell number, DAPI staining was performed for the 48 h after irradiation time point. Briefly, cells were washed with phosphate buffered saline (PBS) and fixed with 4% paraformaldehyde (PFA) for 15 minutes at room temperature. Afterwards, the cells were washed with PBS and stained with 1 μg/mL 4′,6-Diamidine-2′-phenylindole (DAPI) dissolved in 1×TBST, 0.005 g/v % TSA blocking powder (PerkinElmer, FP1012) (TNB). After one hour, cells were washed with PBS and DAPI signals were visualized with the Nikon Eclipse Ti automated inverted wide-field epifluorescence microscope equipped with a 5× magnification (Plan Fluor, numerical aperture 0.6) dry objective and a Nikon IE2000-E camera controlled by the MS Elements software. The intensity of the DAPI signals was determined with the FIJI software. Cell count for 24 h after irradiation experiment was performed by Moxi Z Mini Automated Cell Counter (ORFLO Technologies, Ketchum, Id., USA) after trypsinization. For the 72 h and 7 d post-irradiation cell counts, we used IncuCyte ZOOM™ phase contrast imaging based on 49 images taken per well with the 10× objective.

mice liver = conditions: mice treated with thioacetamide to induce liver fibrosis; cited from earlier work
[3] = 100 μM TAT-Gap19, 5 Gy, 72 h and 7 d p.i.

For “TAT-Gap19: connexin mimetic peptide, amino-acids 128-136 of the CL of Cx43 (SEQ ID NO: 2), Gap19 linked to TAT sequence; Cx43 hemichannel inhibitor (YGRKKRRQRRRKQIEIKKFK)”, the “ROS production (IncuCyte)” value (TICAE cells [1]) was “significantly reduced ROS production at both doses”, the “Annexin V” value (TIME cells; 100 μM TAT-Gap19, 0 Gy, 12-24 h p.i. time window) was “transiently reduced Annexin V” and the “Annexin V elevation” value (TIME cells; 100 μM TAT-Gap19, 5 Gy, 4-48 h p.i. time window) was “significantly reduced Annexin V elevation”. The MCP-1 readout (TICAE cells [2]; 100 μM TAT-Gap19, 0 Gy control and 0.1 Gy, 72 h p.i.) was “increased”, the “IL-8 (radiation-induced increase)” value (TICAE cells [2]; [3]) was “significantly decreased these responses” and the “MCP-1 (radiation-induced increase)” value (TICAE cells [2]; [3]) was “significantly decreased these responses”. The “VCAM-1 (radiation-induced increase)” value (TICAE cells [2]; [3]) was “significantly decreased these responses”, the “all tested inflammatory markers” value (TICAE cells [2]; 100 μM TAT-Gap19, 24 h time point) was “increased all tested markers” and the “Endothelin-1 (radiation-induced increase)” value (TICAE cells [2]; 100 μM TAT-Gap19, 7 d p.i.) was “significantly reduced these responses”. The “IL-11 (radiation-induced increase)” value (TICAE cells [2]; 100 μM TAT-Gap19, 7 d p.i.) was “significantly reduced these responses”, the Endothelin-1 readout (TICAE cells [2]; 100 μM TAT-Gap19, control and 0.1 Gy) was “decreased” and the “SOD activity in liver” value (mice liver) was “increased SOD activity”.
